Source: paper doi:10.1101/2021.09.30.462449v1 (biorxiv, 2021)

Legend:
Assay in all cases: biochemical
Conditions in all cases: read-out: % inhibition mean (Lanthascreen)
ACVR1 (ALK2) = ACVR1 (ALK2) (Homo sapiens, UniProt Q04771)
TGFBR1 (ALK5) = TGFBR1 (ALK5) (Homo sapiens, UniProt P36897)
ULK3 = ULK3 (Homo sapiens, UniProt Q6PHR2)
CDK9 (Inactive) = CDK9 (Inactive) (Homo sapiens, UniProt P50750)
EPHA3 = EPHA3 (Homo sapiens, UniProt P29320)
MYLK4 = MYLK4 (Homo sapiens, UniProt Q86YV6)
GRK1 = GRK1 (Homo sapiens, UniProt Q15835)
CDK3/cyclin E1 = CDK3/cyclin E1 (Homo sapiens, UniProt Q00526)
PRKACG (PRKAC gamma) = PRKACG (PRKAC gamma) (Homo sapiens, UniProt P22612)
MASTL = MASTL (Homo sapiens, UniProt Q96GX5)
DAPK2 = DAPK2 (Homo sapiens, UniProt Q9UIK4)
RAF1 (cRAF) Y340D Y341D = RAF1 (cRAF) Y340D Y341D (Homo sapiens, UniProt P04049, Y340D/Y341D)
CAMK2G (CaMKII gamma) = CAMK2G (CaMKII gamma) (Homo sapiens, UniProt Q13555)
DMPK = DMPK (Homo sapiens, UniProt Q09013)
ICK = ICK (Homo sapiens, UniProt Q9UPZ9)
KIT D820E = KIT D820E (Homo sapiens, UniProt P10721, D820E)
RIPK3 = RIPK3 (Homo sapiens, UniProt Q9Y572)
CASK = CASK (Homo sapiens, UniProt O14936)
BMPR1B (ALK6) = BMPR1B (ALK6) (Homo sapiens, UniProt O00238)
MAPK10 (JNK3) = MAPK10 (JNK3) (Homo sapiens, UniProt P53779)
STK39 (STLK3) = STK39 (STLK3) (Homo sapiens, UniProt Q9UEW8)
MAP3K14 (NIK) = MAP3K14 (NIK) (Homo sapiens, UniProt Q99558)
MYO3A (MYO3 alpha) = MYO3A (MYO3 alpha) (Homo sapiens, UniProt Q8NEV4)
KIT D816H = KIT D816H (Homo sapiens, UniProt P10721, D816H)
CAMKK2 (CaMKK beta) = CAMKK2 (CaMKK beta) (Homo sapiens, UniProt Q96RR4)
AAK1 = AAK1 (Homo sapiens, UniProt Q2M2I8)
PLK4 = PLK4 (Homo sapiens, UniProt O00444)
WNK3 = WNK3 (Homo sapiens, UniProt Q9BYP7)
KIT V559D T670I = KIT V559D T670I (Homo sapiens, UniProt P10721, T670I/V559D)
KIT V559D T670I, sequence (P10721 whole entry V559D/T670I): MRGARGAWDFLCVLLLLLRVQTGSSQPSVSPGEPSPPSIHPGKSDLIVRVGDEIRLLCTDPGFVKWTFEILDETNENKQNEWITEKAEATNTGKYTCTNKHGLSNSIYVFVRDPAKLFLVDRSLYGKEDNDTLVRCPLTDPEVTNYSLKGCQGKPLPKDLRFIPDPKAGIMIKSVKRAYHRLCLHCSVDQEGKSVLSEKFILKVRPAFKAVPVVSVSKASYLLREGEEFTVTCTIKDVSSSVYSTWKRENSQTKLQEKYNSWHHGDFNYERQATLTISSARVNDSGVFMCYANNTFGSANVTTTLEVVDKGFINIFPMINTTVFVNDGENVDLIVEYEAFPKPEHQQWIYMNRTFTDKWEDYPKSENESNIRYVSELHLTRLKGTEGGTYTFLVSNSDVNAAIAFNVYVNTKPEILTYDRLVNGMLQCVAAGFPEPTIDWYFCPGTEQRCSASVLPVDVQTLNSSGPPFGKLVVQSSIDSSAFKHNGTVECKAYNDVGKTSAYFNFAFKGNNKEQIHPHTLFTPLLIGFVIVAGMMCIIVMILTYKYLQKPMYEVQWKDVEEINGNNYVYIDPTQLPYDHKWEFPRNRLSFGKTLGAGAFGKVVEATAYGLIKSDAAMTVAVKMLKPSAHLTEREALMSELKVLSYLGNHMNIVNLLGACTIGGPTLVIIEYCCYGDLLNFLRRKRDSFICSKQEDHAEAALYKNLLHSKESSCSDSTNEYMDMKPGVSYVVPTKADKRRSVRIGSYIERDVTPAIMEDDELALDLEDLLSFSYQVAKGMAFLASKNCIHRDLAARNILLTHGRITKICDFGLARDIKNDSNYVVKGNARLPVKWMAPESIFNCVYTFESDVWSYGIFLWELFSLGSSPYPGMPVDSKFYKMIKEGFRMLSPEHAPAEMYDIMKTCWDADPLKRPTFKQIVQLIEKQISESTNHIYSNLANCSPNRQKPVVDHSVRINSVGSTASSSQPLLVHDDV

DAPK2, sequence (Q9UIK4 whole entry): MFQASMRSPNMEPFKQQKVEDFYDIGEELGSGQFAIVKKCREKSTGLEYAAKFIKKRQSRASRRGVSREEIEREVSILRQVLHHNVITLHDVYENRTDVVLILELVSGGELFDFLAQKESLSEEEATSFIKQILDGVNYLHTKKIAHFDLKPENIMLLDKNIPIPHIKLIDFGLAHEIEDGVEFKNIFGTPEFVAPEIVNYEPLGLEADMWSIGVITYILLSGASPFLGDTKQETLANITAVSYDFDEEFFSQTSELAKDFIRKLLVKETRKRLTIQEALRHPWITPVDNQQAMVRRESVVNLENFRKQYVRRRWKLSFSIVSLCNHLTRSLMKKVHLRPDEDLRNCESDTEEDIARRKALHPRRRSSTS
GRK1, sequence (Q15835 whole entry): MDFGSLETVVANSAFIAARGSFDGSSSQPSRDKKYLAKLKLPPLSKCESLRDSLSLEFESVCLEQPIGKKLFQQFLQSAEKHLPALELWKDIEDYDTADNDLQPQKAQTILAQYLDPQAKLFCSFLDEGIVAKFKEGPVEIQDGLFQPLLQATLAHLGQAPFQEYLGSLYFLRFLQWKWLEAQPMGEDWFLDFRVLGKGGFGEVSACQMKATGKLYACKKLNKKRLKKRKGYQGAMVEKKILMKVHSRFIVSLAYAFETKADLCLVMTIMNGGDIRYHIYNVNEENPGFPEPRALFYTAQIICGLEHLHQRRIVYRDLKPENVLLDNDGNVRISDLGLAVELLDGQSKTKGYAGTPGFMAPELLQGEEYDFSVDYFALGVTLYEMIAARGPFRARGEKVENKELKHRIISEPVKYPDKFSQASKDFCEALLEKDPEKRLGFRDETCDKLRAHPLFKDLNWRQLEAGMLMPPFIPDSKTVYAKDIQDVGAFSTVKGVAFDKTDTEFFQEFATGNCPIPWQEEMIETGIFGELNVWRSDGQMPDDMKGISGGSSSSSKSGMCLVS
ACVR1 (ALK2), sequence (Q04771 whole entry): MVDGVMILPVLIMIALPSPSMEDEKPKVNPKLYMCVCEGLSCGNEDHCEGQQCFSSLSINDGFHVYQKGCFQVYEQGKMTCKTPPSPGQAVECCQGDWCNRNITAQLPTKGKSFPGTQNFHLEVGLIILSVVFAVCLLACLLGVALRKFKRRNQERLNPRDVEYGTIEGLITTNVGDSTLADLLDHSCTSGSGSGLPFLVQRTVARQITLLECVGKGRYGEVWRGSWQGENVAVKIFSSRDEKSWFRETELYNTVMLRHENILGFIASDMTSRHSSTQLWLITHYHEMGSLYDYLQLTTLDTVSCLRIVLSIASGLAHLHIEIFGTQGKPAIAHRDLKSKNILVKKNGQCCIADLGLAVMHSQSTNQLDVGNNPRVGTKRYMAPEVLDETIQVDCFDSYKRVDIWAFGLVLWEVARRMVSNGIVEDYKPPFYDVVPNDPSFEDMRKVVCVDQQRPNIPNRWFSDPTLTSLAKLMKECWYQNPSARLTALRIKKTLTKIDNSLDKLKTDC
CAMK2G (CaMKII gamma), sequence (Q13555 whole entry): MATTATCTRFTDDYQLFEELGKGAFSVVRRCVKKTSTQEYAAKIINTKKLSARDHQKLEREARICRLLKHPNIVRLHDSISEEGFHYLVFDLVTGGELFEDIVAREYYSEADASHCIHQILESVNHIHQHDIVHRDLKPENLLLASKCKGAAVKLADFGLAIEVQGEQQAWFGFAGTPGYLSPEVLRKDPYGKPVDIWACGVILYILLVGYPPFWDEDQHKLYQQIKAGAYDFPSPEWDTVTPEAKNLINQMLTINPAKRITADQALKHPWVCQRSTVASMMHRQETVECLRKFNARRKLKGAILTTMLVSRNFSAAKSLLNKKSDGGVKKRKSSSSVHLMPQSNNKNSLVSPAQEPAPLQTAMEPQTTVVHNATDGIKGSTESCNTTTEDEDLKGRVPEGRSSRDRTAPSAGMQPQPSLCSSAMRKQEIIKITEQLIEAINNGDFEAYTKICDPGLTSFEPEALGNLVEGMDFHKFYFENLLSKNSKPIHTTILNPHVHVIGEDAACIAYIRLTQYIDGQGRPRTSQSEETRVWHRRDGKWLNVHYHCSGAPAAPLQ
BMPR1B (ALK6), sequence (O00238 whole entry): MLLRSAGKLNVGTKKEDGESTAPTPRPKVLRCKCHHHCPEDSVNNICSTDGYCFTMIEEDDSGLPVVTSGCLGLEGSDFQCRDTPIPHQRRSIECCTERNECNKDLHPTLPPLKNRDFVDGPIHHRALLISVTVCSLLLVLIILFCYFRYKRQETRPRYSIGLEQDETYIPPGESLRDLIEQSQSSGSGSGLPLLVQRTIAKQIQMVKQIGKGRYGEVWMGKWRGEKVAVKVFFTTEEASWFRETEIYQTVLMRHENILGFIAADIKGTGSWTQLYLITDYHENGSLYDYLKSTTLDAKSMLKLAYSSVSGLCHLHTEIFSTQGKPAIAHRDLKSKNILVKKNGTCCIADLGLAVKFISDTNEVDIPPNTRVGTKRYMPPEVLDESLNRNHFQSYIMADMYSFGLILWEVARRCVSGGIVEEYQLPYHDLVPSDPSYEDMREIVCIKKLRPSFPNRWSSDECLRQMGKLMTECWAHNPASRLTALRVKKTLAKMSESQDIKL
CDK3/cyclin E1, sequence (Q00526 whole entry): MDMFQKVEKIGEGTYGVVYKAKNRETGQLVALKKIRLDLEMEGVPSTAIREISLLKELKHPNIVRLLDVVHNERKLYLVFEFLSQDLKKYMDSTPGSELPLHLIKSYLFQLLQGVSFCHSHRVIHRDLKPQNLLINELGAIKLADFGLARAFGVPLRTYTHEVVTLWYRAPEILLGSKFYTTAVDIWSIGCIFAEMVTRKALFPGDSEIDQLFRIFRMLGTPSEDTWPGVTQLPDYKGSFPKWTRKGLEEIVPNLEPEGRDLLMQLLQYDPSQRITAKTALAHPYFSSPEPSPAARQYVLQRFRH
CDK3/cyclin E1, sequence (P24864 whole entry, further chain): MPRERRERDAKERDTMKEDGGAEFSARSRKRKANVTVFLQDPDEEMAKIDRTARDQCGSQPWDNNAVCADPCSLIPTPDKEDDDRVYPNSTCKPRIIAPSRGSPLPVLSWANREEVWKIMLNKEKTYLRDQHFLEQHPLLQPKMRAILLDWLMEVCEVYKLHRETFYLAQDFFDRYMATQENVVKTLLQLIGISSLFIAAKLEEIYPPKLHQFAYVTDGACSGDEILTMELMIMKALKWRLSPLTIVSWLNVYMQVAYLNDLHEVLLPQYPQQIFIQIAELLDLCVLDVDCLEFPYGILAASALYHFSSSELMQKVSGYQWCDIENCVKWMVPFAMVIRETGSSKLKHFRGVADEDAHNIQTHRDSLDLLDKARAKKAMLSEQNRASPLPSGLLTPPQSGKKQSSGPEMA
RAF1 (cRAF) Y340D Y341D, sequence (P04049 whole entry Y340D/Y341D): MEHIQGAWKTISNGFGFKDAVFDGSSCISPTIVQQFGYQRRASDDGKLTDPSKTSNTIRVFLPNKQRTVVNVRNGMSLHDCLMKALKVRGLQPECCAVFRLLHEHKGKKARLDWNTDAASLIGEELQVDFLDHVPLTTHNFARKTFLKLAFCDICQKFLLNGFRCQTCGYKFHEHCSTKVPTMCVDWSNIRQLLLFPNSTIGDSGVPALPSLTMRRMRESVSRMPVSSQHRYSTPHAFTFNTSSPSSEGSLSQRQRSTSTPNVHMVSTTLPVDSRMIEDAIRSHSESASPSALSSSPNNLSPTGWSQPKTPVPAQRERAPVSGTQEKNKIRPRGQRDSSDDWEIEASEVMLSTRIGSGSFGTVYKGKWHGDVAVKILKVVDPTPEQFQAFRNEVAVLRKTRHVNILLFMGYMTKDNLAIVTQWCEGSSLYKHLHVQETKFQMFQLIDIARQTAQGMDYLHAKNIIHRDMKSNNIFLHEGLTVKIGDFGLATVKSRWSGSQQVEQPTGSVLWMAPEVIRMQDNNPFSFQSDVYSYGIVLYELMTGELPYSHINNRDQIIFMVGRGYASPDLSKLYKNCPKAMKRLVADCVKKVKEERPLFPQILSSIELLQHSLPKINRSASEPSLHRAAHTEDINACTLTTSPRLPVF
KIT D820E, sequence (P10721 whole entry D820E): as the sequence (P10721 whole entry V559D/T670I) above, with D559V, I670T, D820E counted along it
KIT D816H, sequence (P10721 whole entry D816H): as the sequence (P10721 whole entry V559D/T670I) above, with D559V, I670T, D816H counted along it

COc1ccc2nc3cc(Cl)ccc3c(Nc3cc(CN4CCCC4)c(O)c(CN4CCCC4)c3)c2n1 [Pyronaridine, 4-[(7-Chloro-2-methoxybenzo[b][1,5]naphthyridin-10-yl)amino]-2,6-bis(1-pyrrolidinylmethyl)phenol phosphate (1:4)]
inhibition at 1 µM (ACVR1 (ALK2)): 0% | inhibition at 1 µM (TGFBR1 (ALK5)): -4% | inhibition at 1 µM (ULK3): 8% | inhibition at 1 µM (CDK9 (Inactive)): -10% | inhibition at 1 µM (EPHA3): 11% | inhibition at 1 µM (MYLK4): -9% | inhibition at 1 µM (GRK1): 1% | inhibition at 1 µM (CDK3/cyclin E1): 3% | inhibition at 1 µM (PRKACG (PRKAC gamma)): 2% | inhibition at 1 µM (MASTL): 3% | inhibition at 1 µM (DAPK2): -6% | inhibition at 1 µM (RAF1 (cRAF) Y340D Y341D): -5% | inhibition at 1 µM (CAMK2G (CaMKII gamma)): -1% | inhibition at 1 µM (DMPK): 4% | inhibition at 1 µM (ICK): 0% | inhibition at 1 µM (KIT D820E): -4% | inhibition at 1 µM (RIPK3): -7% | inhibition at 1 µM (CASK): 2% | inhibition at 1 µM (BMPR1B (ALK6)): -3% | inhibition at 1 µM (MAPK10 (JNK3)): 5% | inhibition at 1 µM (STK39 (STLK3)): -19% | inhibition at 1 µM (MAP3K14 (NIK)): 2% | inhibition at 1 µM (MYO3A (MYO3 alpha)): -6% | inhibition at 1 µM (KIT D816H): -7% | inhibition at 1 µM (CAMKK2 (CaMKK beta)): -1% | inhibition at 1 µM (AAK1): 0% | inhibition at 1 µM (PLK4): 6% | inhibition at 1 µM (WNK3): 7% | inhibition at 1 µM (KIT V559D T670I): -10%
